According to BindingDB's records for doi:10.7270/Q2DF6PMF (Nmmlsc, 2007):
Where a name gives a salt, the structure may show the parent alone.

Target: T1, N-formyl peptide receptor 2 (Homo sapiens, UniProt P25090)
T1 sequence (P25090 whole entry): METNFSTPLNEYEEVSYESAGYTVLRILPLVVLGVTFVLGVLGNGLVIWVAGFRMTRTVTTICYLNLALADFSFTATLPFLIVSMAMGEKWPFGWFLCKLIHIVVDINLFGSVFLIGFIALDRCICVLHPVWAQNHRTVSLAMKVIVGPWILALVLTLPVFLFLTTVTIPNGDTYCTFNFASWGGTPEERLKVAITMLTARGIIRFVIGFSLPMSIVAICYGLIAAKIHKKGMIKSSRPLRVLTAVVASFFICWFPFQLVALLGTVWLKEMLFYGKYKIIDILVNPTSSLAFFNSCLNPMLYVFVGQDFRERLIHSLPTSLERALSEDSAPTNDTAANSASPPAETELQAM
Assay: FPRL1 binding inhibitor potency, dose response, cell-based, FPR counter-screen, fluorescent ligand (AID 520)

[1] = inactive by the depositor's call

IC50 | IC50 [1] | Compound
> 66.7 µM | – | O=C(Cn1cnc2c(cnn2-c2ccc(F)cc2)c1=O)OCc1ccccc1 [(phenylmethyl) 2-[1-(4-fluorophenyl)-4-oxidanylidene-pyrazolo[3,4-d]pyrimidin-5-yl]ethanoate]
> 66.7 µM | – | Cc1[nH]n2c(=O)c3c(nc2c1-c1ccc(Cl)cc1)CCC3 [MLS000034815]
> 66.7 µM | – | O=c1cc(N2CCc3ccccc32)[nH]c(=O)n1Cc1ccc(F)cc1 [MLS000045863]
– | 45 µM | COc1ccc(-c2cn3cccnc3n2)cc1NC(=O)CC(C)C [MLS000045943]
> 66.7 µM | – | COc1ccc(-c2cn3cccnc3n2)cc1NC(=O)C1CCCC1 [MLS000045945]
> 66.7 µM | – | C=CCn1c(NC(=O)c2ccccc2)c(C#N)c2nc3ccccc3nc21 [MLS000057035]
> 66.7 µM | – | CSc1ccccc1NS(=O)(=O)c1ccccc1 [MLS000064343]
> 66.7 µM | – | CC1(C)S[C@@H]2[C@H](NC(=O)Cc3ccccc3)C(=O)N2[C@H]1C(=O)O [MLS000069426]
> 66.7 µM | – | CCCC(=O)Nc1c2c(nn1-c1ccc(OC)cc1)C[S+]([O-])C2 (stereo not drawn) [MLS000086302]
– | 49.9 µM | CCOC(=O)N1CCN(c2cc(NCCC(=O)O)c3c4c(onc24)-c2ccccc2C3=O)CC1 [MLS000086406]

The remaining lines, values behind:

Compound | IC50 | IC50 [1]
COc1cccc2c1C(=O)c1c(O)c3c(c(O)c1C2=O)C[C@@](O)(C(C)=O)C[C@@H]3O[C@H]1C[C@H](N)[C@H](O)[C@H](C)O1 [(7S,9S)-9-acetyl-7-[(2R,4S,5S,6S)-4-amino-5-hydroxy-6-methyloxan-2-yl]oxy-6,9,11-trihydroxy-4-methoxy-8,10-dihydro-7H-tetracene-5,12-dione;hydrochloride] | 25.1 µM | –
CN(C)c1nc(N(C)C)nc(N(C)C)n1 [ALTRETAMINE] | > 66.7 µM | –
CCN(CCCc1ccccc1)CCCc1ccccc1 [ALVERINE CITRATE SALT] | > 66.7 µM | –
CC1(C)S[C@@H]2[C@H](NC(=O)C(C(=O)O)c3ccccc3)C(=O)N2[C@H]1C(=O)O (stereo partly drawn) [CARBENICILLIN DISODIUM SALT] | > 66.7 µM | –
COc1ccccc1NC(=O)CSc1nnc(Cn2nnc(-c3ccccc3)n2)n1-c1ccccc1 [MLS000032410] | > 66.7 µM | –
COc1ccc(CN(C(=O)c2ccccc2OC)C2CCS(=O)(=O)C2)cc1 (stereo not drawn) [MLS000041347] | > 66.7 µM | –
COc1ccc(NC(=O)C(c2ccc(C)cc2)N(C)C(=O)c2cnccn2)cc1 (stereo not drawn) [MLS000044155] | > 66.7 µM | –
COc1ccc(-c2nnc(Nc3nc4c(OC)cccc4s3)o2)cc1 [MLS000045458] | > 66.7 µM | –
CCCC(=O)Nc1cc(-c2cn3cccnc3n2)ccc1OC [MLS000045942] | – | 22.8 µM
COc1ccc(-c2cn3cccnc3n2)cc1NC(=O)C1CC1 [MLS000045944] | 7.6 µM | –
Cc1ccc(NC(=O)c2oc3ccc(S(=O)(=O)N4CCOCC4)cc3c2C)cc1C [MLS000046288] | > 66.7 µM | –
O=C(NCCCN1CCN(c2ccc(F)cc2)CC1)c1cccc(N2CCCC2=O)c1 [MLS000046779] | > 66.7 µM | –
CCOC(=O)Nc1ccc(OC)cc1S(=O)(=O)N1CCCCC1 [MLS000048808] | > 66.7 µM | –
COc1ccc(S(=O)(=O)NC(C)C(=O)Nc2cccc(C(C)=O)c2)cc1 (stereo not drawn) [MLS000051414] | > 66.7 µM | –
O=S(=O)(Nc1cccc2ncccc12)c1cccs1 [MLS000057468] | > 66.7 µM | –
O=C(NC1CCCC1)C1CC1c1ccccc1 (stereo not drawn) [MLS000061073] | > 66.7 µM | –
COc1ccc(NC(=O)C2C3CCC(C3)C2C(=O)O)cc1OC (stereo not drawn) [MLS000061524] | > 66.7 µM | –
Cc1nnc(SCc2cnc(-c3ccccc3)o2)nc1O [MLS000061907] | > 66.7 µM | –
Cc1cc2oc(C(=O)NC3CCS(=O)(=O)C3)c(C)c2cc1C (stereo not drawn) [MLS000063255] | > 66.7 µM | –
CCCCn1c(NC(C)=O)c(C#N)c2nc3ccccc3nc21 [MLS000079917] | > 66.7 µM | –
CCCCn1c(NC(=O)CC)c(C#N)c2nc3ccccc3nc21 [MLS000079918] | > 66.7 µM | –
COc1ccc(-c2cc(C(F)(F)F)nc(NC3CCCC3)n2)cc1OC [MLS000086438] | > 66.7 µM | –
COC(=O)C1=[N+]([O-])OC(C(=O)OC)C1c1c[nH]c2ccccc12 (stereo not drawn) [MLS000090094] | > 66.7 µM | –
